# Experimental data reported in paper PMC5550493, “The Conserved Lysine-265 Allosterically Modulates Nucleotide- and Actin-binding Site Coupling in Myosin-2” (Scientific Reports, 2017).
# Experiments:
# [1] = target: T1, actomyosin (Dd myosin-2 M765-2R with F-actin) (Dictyostelium discoideum, UniProt P08799); test: stopped-flow light scattering, ADP inhibition of ATP-induced actomyosin dissociation; type: binding; details: read-out: Dd myosin-2 (M765-2R construct) / WT
# T1 construct: gene mhcA; M765-2R: mhcA 1-765 fused to Dd alpha-actinin repeats (codons 264-505), C-terminal Asp-Ala-Leu-(His)8 tag kept, expressed in D. discoideum AX3-Orf+; in complex with F-actin purified from rabbit skeletal muscle; with Actin, alpha skeletal muscle (Oryctolagus cuniculus)
# Text: stopped-flow light scattering, ADP inhibition of ATP-induced actomyosin dissociation on actomyosin (Dd myosin-2 M765-2R with F-actin)
# [2] = target: T1, actomyosin (Dd myosin-2 M765-2R with F-actin); test: NADH-coupled actin-activated ATPase assay; type: biochemical; details: 20 µM F-actin, 1 mM ATP, 5% DMSO, 25 mM HEPES pH 7.3, 25 mM KCl, 5 mM MgCl2, 25 °C; allosteric
# T1 sequence (P08799 whole entry, looked up, the tested form may be a part): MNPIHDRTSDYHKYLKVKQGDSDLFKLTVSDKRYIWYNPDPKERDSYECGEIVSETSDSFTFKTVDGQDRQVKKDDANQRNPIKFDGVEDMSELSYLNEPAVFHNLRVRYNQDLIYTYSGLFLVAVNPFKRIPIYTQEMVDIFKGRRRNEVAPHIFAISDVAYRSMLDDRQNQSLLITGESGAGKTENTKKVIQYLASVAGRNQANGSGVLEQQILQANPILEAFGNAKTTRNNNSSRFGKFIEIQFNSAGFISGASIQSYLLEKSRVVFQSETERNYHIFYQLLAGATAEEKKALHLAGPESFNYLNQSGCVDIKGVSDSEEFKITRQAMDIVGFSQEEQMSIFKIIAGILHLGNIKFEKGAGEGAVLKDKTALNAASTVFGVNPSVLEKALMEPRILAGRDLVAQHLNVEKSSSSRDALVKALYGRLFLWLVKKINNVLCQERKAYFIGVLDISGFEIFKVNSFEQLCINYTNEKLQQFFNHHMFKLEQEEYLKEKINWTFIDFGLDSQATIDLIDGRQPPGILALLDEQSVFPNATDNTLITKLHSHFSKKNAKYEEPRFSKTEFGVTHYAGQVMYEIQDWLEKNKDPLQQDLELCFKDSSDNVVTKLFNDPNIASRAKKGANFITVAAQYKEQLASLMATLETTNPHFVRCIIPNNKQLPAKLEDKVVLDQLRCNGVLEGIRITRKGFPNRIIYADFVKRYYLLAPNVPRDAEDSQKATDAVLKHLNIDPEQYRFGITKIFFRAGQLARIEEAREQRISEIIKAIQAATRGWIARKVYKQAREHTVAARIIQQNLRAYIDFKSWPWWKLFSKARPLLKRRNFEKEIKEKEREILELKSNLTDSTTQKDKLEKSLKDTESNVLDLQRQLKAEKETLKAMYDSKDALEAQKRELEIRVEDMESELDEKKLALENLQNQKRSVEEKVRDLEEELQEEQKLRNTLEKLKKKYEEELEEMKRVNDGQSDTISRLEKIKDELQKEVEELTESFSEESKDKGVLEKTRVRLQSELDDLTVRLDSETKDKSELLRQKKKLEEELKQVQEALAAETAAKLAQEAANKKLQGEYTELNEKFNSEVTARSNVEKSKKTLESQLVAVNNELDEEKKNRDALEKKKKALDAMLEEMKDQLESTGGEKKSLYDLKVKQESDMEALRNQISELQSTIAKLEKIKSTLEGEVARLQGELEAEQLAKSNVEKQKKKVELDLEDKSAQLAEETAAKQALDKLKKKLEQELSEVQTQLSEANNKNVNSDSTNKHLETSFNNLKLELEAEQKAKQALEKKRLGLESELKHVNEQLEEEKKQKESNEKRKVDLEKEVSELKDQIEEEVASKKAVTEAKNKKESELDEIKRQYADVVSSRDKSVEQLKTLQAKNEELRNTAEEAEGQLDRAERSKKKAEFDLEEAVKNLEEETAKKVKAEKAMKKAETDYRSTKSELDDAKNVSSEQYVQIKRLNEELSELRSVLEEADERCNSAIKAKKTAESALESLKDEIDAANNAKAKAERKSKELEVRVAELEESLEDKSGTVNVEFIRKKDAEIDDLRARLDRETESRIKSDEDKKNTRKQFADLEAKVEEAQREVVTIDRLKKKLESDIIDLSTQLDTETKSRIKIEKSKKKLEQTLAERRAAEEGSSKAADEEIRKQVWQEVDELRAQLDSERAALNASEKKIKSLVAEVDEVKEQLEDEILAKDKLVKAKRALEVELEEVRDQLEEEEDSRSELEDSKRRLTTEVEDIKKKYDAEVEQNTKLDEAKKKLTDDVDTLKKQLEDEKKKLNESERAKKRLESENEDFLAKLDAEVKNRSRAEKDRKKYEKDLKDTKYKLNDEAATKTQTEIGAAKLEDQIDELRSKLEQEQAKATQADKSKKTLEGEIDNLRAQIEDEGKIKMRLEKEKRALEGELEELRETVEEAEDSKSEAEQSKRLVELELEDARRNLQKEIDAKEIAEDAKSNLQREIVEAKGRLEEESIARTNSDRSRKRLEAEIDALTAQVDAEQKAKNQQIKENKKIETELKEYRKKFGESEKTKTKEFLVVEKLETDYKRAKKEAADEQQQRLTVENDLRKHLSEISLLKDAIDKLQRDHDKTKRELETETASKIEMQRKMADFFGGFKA
Structure (SMILES),Kd [1] [µM],n-fold inhibition at 100 μM PBP [2] [fold]
Nc1ncnc2c1ncn2[C@@H]1O[C@H](COP(=O)(O)OP(=O)(O)O)[C@@H](O)[C@H]1O [ADP],73.3 ± 7,–
Oc1c(Br)cc(Br)cc1-c1[nH]c(Br)c(Br)c1Br [pentabromopseudilin],–,7
